{"source": "patent US20160287553A1", "about": "“TRANSLATION INHIBITORS IN HIGH-DOSE CHEMO- AND/OR HIGH-DOSE RADIOTHERAPY” (DEUTSCHES KREBSFORSCHUNGSZENTRUM, priority 2013, published 2016)", "key": {"[1]": {"system": "Peripheral blood T cells", "assay": "Teniposide-, Doxorubicin- and Bleomycin-induced apoptotic cell death in T cells", "type": "cell-based, human", "conditions": "Roc-A 75 nM; increasing doses of the drugs (FIG. 1b)", "description": "(§1) DNA fragmentation was determined by FACS.\nThe radioprotective effect mediated by Roc-A was the highest when cells were treated with Roc-A 1 h before radiation of cells (FIG. 1d). However, when cells were treated 4 h after radiation, the radioprotective effect was still higher than 50% (FIG. 1d)."}, "[2]": {"system": "human peripheral blood B cells", "assay": "Etoposide-induced apoptosis in B cells", "type": "cell-based", "conditions": "B cells (FIG. 1c)", "description": "as §1\n(§2) Next, we asked whether Roc-A could also protect other normal primary cells from DNA damage-induced toxicity. To address this question, we examined the protective effect of Roc-A on Etoposide-treated human peripheral blood B cells, NK cells, neutrophils, cardiomyocytes and murine hematopoietic stem and progenitor cells (HSPCs)."}, "[3]": {"system": "neutrophils", "assay": "Etoposide-induced apoptosis in neutrophils", "type": "cell-based, human", "conditions": "neutrophils (FIG. 1c)", "description": "as §1, §2"}, "[4]": {"system": "p53", "assay": "p53 protein expression by immunoblot", "type": "cell-based, human", "description": "Immunoblot analysis was carried out as previously described (Polier et al., Chem Biol. 2012; 19: 1093-1104). Briefly, 4-20×10^6 cells were treated with different reagents as indicated and lysed in RIPA buffer (50 mM Tris HCl, 137 mM NaCl, 0.5% Na Deoxycholate, 1% Triton X-100, 0.1% SDS, protease inhibitors). Proteins were separated by SDS-PAGE and transferred to a nitrocellulose membrane (Amersham Biosciences, Little Chalfon, UK) using a semi-dry blotting approach. The following antibodies were used: p53 (DO-1) antibody was purchased from Santa Cruz Biotechnology (Heidelberg, Germany). Tubulin and actin (A5441) antibodies were purchased from Sigma-Aldrich (St. Louis, USA).\nThe transcription factor p53 is a major regulator of DNA damage-induced apoptosis (Lowe et al., Cell. 1993; 74: 957-967). Therefore, we investigated the effect of Roc-A on the expression level of p53.\np53 protein expression can be regulated at the level of transcription, translation, and ubiquitination-mediated degradation (Marine & Lozano, Cell Death Differ. 2010; 17: 93-102). It has been shown that upon DNA damage p53 undergoes post-translational modifications leading to its deubiquitination and, thus, stabilization (Lee & Gu, Cell Death Differ. 2010; 17: 86-92). To investigate whether Roc-A could decrease p53 stability, we treated T cells with the proteasome inhibitor Bortezomib to block proteasome-mediated degradation."}, "[5]": {"system": "p53-knockdown T cells", "assay": "Etoposide-induced cell death in p53 siRNA knock-down T cells", "type": "cell-based, human", "conditions": "Etoposide 50 μM, Roc-A 75 nM, 24 h (FIG. 4a)", "description": "as §1\nsiRNAs specific for p53 mRNA was 5′-[…]tt-3′ (SEQ ID NO: 1; [Applied Biosystems, Darmstadt, Germany]). 1.5×10^7 human peripheral blood T cells were transfected with 2 μM of p53 siRNA or of scrambled siRNA (Qiagen, Hilden, Germany) using Amaxa Human T Cell Nucleofector Kit (Lonza, Basel, Switzerland) according to the manufacturer's instructions. The Amaxa Nucleofector program U-014 was used for transfection.\n(§3) To further investigate the role of p53 in Roc-A-mediated protection of T cells against DNA damage-induced apoptosis, we performed a p53 knock-down experiment using a siRNA approach (FIG. 4a, upper panel). […] Therefore, we examined the effect of Roc-A on p53 knock-out (KO) cells."}, "[6]": {"system": "Splenocytes from p53+/+ mice", "assay": "Etoposide-induced cell death in p53 wild-type splenocytes", "type": "cell-based, mouse", "conditions": "p53-WT splenocytes, 50 μM Etoposide, 75 nM Roc-A (FIG. 4b)", "description": "as §1\nP53^−/− C57B1/6 mice (B6.Trp53tm1Tyj) were kindly provided by Liu H-K (German Cancer Research Center, Heidelberg, Germany). Spleens of 8-12 week old p53^−/−, and p53^+/+ mice were isolated in parallel, minced and incubated for 30 min in RPMI-1640 medium supplemented with DNase I (50 U/ml) and Collagenase IV (1 mg/ml) at 37° C. and 5% CO2. Splenocytes were filtered by […] cell strainer, washed twice with ice-cold wash buffer (PBS, 0.5% FCS, 2 mM EDTA) and resuspended in Oxford medium (RPMI 1640, 10% FCS, 100 μg/ml Penicillin, 100 μg/ml Streptamycin, 10 mM Hepes, 50 μM β-Mercaptoethanol, 2 mM L-glutamine, 1 mM sodium pyruvate, 100 μM non-essential amino acids) at a concentration of 2×10^6 cells/ml.\nas §3"}, "[7]": {"system": "L1236 (Hodgkin's lymphoma), p53 mutated", "assay": "Etoposide-induced cell death in L1236", "type": "cell-based, human", "conditions": "L1236 (FIG. 5a)", "description": "as §1\n(§4) Since Roc-A-mediated protection of non-malignant cells from DNA-damage-induced cell death is largely p53-dependent, we predicted that Roc-A would not protect cancer cells which have non-functional p53. […] 1997; 19: 243-253), Reh (Zhou et al, loc cit.), SKW6.4 (Barbarotto et al., J Cell Biochem. 2008; 104: 595-605) and NCI-H209 (Fujita et al. Int J Oncol. 1999; 15: 927-934) which have a WT p53 protein."}, "[8]": {"system": "SCLC-21H cells (small cell lung cancer), p53 mutated", "assay": "Etoposide-induced cell death in SCLC-21H", "type": "cell-based, human", "conditions": "SCLC-21H (FIG. 5a)", "description": "as §1, §4"}, "[9]": {"system": "EU-3 (acute lymphoblastic leukemia), WT p53", "assay": "Etoposide-induced cell death in EU-3", "type": "cell-based, human", "conditions": "EU-3 (FIG. 5b)", "description": "as §1, §4"}, "[10]": {"system": "malignant cells", "assay": "Fold change in cell death on raising the Etoposide dose, malignant cells (FIG. 9a-b)", "type": "cell-based", "conditions": "75 nM Roc-A in parallel to Etoposide, 6.25 μM to 50 μM, 24 h", "description": "(a) Cells from (b) were grouped into malignant and non-malignant cells. Shown are means of three independent experiments. Abbreviations; HSPCs=hematopoietic stem and progenitor cells. (c-d) Malignant and non-malignant cells were exposed to ionizing radiation (IR) in the presence of 75 nM Roc-A or solvent (DMSO) and cell death was determined after 24 h by DNA fragmentation. Depicted is the fold-change in cell death that was measured when doses of IR were increased from 2 Gy to 10 Gy. (c) Cells from (d) were grouped into malignant and non-malignant cells. Shown are means of three independent experiments.\nas §1\nRoc-A specifically prevents the cause of chemotherapeutic and radiation-induced side-effects, i.e., the death of healthy cells. […] Consequently, high-dose therapy is not possible, as side effects would be too high."}}, "note": "“Also recorded” adds a separate entry of the source."}
{"molecule": "COc1ccc([C@@]23Oc4cc(OC)cc(OC)c4[C@]2(O)[C@H](O)[C@H](C(=O)N(C)C)[C@H]3c2ccccc2)cc1", "note": "[Roc-A, (1R,2R,3S,3aR,8bS)-1,8b-dihydroxy-6,8-dimethoxy-3a-(4-methoxyphenyl)-N,N-dimethyl-3-phenyl-2,3-dihydro-1H-cyclopenta[b][1]benzofuran-2-carboxamide]", "values": [{"measurement": "Drug-induced apoptosis (Teniposide, Doxorubicin, Bleomycin)", "setting": "[1]", "result": "reduces Teniposide-, Doxorubicin- and Bleomycin-induced apoptotic cell death in T cells; also recorded: could reduce drug-induced apoptosis in all cases"}, {"measurement": "Protection against Etoposide-induced apoptosis", "setting": "[2]", "result": "protected"}, {"measurement": "Protection against Etoposide-induced apoptosis", "setting": "[3]", "result": "protected"}, {"measurement": "Etoposide-induced p53 increase", "setting": "[4]; B cells (FIG. 3d)", "result": "inhibits Etoposide-induced p53 upregulation; also recorded: suppressed"}, {"measurement": "Etoposide-induced p53 increase", "setting": "[4]; NK cells (FIG. 3e)", "result": "inhibits Etoposide-induced p53 upregulation; also recorded: suppressed"}, {"measurement": "p53 upregulation by IR, Bleomycin, Teniposide, Doxorubicin", "setting": "[4]; T cells (FIG. 3b, f)", "result": "inhibits Etoposide-(a), Bleomycin-, Teniposide- and Doxorubicin-(b) induced p53 upregulation in T cells; also recorded: inhibition was also observed"}, {"measurement": "Upregulation of p53, kinetic analysis", "setting": "[4]; T cells, 50 μM Etoposide, 75 nM Roc-A (FIG. 3c)", "result": "could inhibit upregulation of p53 at all time-points analyzed"}, {"measurement": "Etoposide-induced p53 protein expression", "setting": "[4]; T cells, increasing Etoposide, different concentrations of Roc-A (FIG. 3a)", "result": "inhibits Etoposide-(a), Bleomycin-, Teniposide- and Doxorubicin-(b) induced p53 upregulation in T cells; also recorded: p53 expression was blocked in a dose-dependent manner"}, {"measurement": "Etoposide-induced apoptosis in p53-knockdown cells", "setting": "[5]", "result": "could still further down-regulate Etoposide-induced apoptosis in p53-knockdown cells"}, {"measurement": "Protection against Etoposide-induced cell death", "setting": "[6]", "result": "protected"}, {"measurement": "Protection against Etoposide-induced cell death", "setting": "[7]", "result": "did neither protect"}, {"measurement": "Protection against Etoposide-induced cell death", "setting": "[8]", "result": "did neither protect"}, {"measurement": "Protection against Etoposide-induced cell death", "setting": "[9]", "result": "protected by Roc-A from Etoposide-induced cell death but to a lesser extent than non-malignant cells"}, {"measurement": "Change in cell death on increased Etoposide doses with Roc-A", "setting": "[10]", "result": "increased cell death in malignant cells"}]}
